Entries after “also recorded” stand apart in the source; their conditions may differ.
Columns and labels:
[1] = test system: human coronary artery endothelial cells (HCAEC); test: IL-6 and IL-8 ELISA in TNF-α-stimulated HCAEC; assay type: cell-based; conditions: 0.5 mM, 24 hours after 6 hour TNF-α
Protocol: Primary human coronary artery endothelial cells (HCAEC) were cultured and seeded onto a 96-well plate, using methods described in the MTS proliferation assay above. Cells were again stimulated with 20 ng/ml of TNF-α for 6 hours and then treated with MMI-0100 (SEQ ID NO: 1) for approximately 24 hours. Supernatants were then collected and analyzed for drug effect on inflammatory cytokines.
IL-6 (Cat #: 900-K16; Lot #: 0909016) and IL-8 (Cat #: 900-K18; Lot #: 0209018) ELISA kits (Peprotech; Rocky Hill, N.J.) were used to measure levels of these cytokines from HCAEC supernatants following treatment with MMI-0100 ([…]; SEQ ID NO: 1). The Human IL-6 ELISA development kit contains the key components required for the quantitative measurement of natural and/or recombinant hIL-6 in a sandwich ELISA format within the range of 32-2000 pg/ml. Human IL-8 ELISA development kit contains the key components required for the quantitative measurement of natural and/or recombinant hIL-8 in a sandwich ELISA format within the range of 16-1000 pg/ml. […]
Briefly, 10 μl of supernatant was diluted with 90 μl of diluents; 3 replicates of each sample were used. Data were collected at 405 nm with correction at 650 nm on a plate reader. Each plate was monitored for 1 hour with readings taken every 5 minutes. Concentrations of IL-6 and IL-8 in test samples were determined by extrapolating from a standard curve. […]

[2] = test system: human saphenous vein (HSV); test: Muscle bath: sodium nitroprusside-induced relaxation of human saphenous vein; assay type: cell-based; conditions: for relaxation: 100 μM pretreatment, phenylephrine 10^-6 M, percent relaxation per method
Protocol: De-identified, discarded segments of human saphenous vein (HSV) were collected from consented patients undergoing coronary artery or peripheral vascular bypass surgeries. HSV segments were stored in a saline solution until the end of the surgical procedure, at which time they were placed in cold transplant harvest buffer (100 mM potassium lactobionate, 25 mM KH2PO4, 5 mM MgSO4, 30 mM Raffinose, 5 mM Adenosine, 3 mM Glutathione, 1 mM Allopurinol, 50 g/L Hydroxyethyl starch, pH 7.4). The vessels were used within 24 hours of harvest. Using sterile technique, HSV segments were transferred to a 60-mm Petri dish under a sterile hood. The edges (0.5 mm) of each segment were removed with a blade and excess adventitial tissue and fat removed with minimal manipulation. HSV segments were cut into consecutive rings of approximately 1.0 mm in width to be utilized for organ culture or muscle bath experiments. Two rings from each segment were immediately fixed in 10% formalin at 37° C. for 30 min to obtain pre-culture intimal thickening measurements.
In preparation for testing vein segment functional viability, HSV rings were weighed and their lengths recorded. To focus on smooth muscle responses, the endothelium was mechanically denuded by rolling the luminal surface of each ring at the tip of a fine vascular forceps before suspension in a muscle bath containing a bicarbonate buffer (120 mM NaCl, 4.7 mM KCl, 1.0 mM MgSO4, 1.0 mM NaH2PO4, 10 mM glucose, 1.5 mM CaCl2, and 25 mM […], pH 7.4) equilibrated with 95% O2 and 5% CO2 at 37° C. The rings were stretched and the length progressively adjusted until maximal tension was obtained. […] Rings were maintained at a resting tension of 1 g, which produces maximal responses to contractile agonists as previously determined, and equilibrated for 2 hours in buffer. […]
HSV rings were first contracted with 110 mM KCl (with equimolar replacement of NaCl in bicarbonate buffer) and the generated force was measured. […] Rings were relaxed with a cumulative log dose of sodium nitroprusside (SNP), a nitric oxide donor, and the force generated was recorded. […] Rings were then incubated with either buffer alone or buffer plus 100 μM of MMI-0100 ([…] (SEQ ID NO: 1)) for 2 hours, followed by treatment with the same doses of PE and SNP, and the forces generated again recorded. Measured force was normalized for ring weight and length and percent relaxation was calculated; force generated with 10^−6 M of PE was set as 0% relaxation.
The enhancing effect of MMI-0100 ([…]; SEQ ID NO: 1) on smooth muscle relaxation was examined by pre-treating harvested human saphenous vein (HSV) with MMI-0100 ([…]; SEQ ID NO: 1) before SNP treatment. […] Percentage of relaxation at 0, 0.01, 0.1, and 1.0 μM of SNP was measured. […]

**Q.** With YARAAARQARAKALARQLGVAA [MMI-0100] as the sequence, how does the “TNF-α-induced IL-6 expression” value [1] read?
**A.** reduced the level of TNF-α-induced IL-6 expression to that of the untreated control

**Q.** What about the “TNF-α-induced IL-8 expression” value [1] of the same sequence?
**A.** did not affect the level of TNF-α-induced IL-8 expression; also recorded: no effect

**Q.** And the “increase in relaxation compared to control-pretreated HSV” value ([2]; 30 μM, 2 hrs pretreatment, norepinephrine contraction, SNP 0-1 μM)?
**A.** about 40%

**Q.** What about the relaxation ([2]; SNP 10^-7 M, untreated control 72.768±6.99) of the same sequence?
**A.** 92.54±3.09

**Q.** What about the relaxation ([2]; SNP 10^-8 M, untreated control 10.825±5.62) of the same sequence?
**A.** 25.622±6.38

— patent US20110288036A1, “Methods for Treating or Preventing Vascular Graft Failure” (priority 2010, published 2011)
